Tested on: human patients suffering from osteoarthritis
Assay: Clinical study in osteoarthritis patients: patient-recorded adverse side effects
Type: in vivo
Details: 4 weeks
Text: Four groups of patients were selected and each group was given one or other of the following medications over a four week period:
All patients were aged from 45-80 and had been suffering from chronic knee pain due to osteoarthritis for at least 6 months. Patients went through a washout period of their existing osteoarthritis treatments. […] At the beginning of the study, and also at conclusion of each subsequent week, patients were required to visit a physician and complete a WOMAC questionnaire and a Global Pain Rating Assessment.
In terms of adverse side effects patients were asked to keep a record of these, if any.

Structure (SMILES): CC(C)Cc1ccc(C(C)C(=O)O)cc1 (centres unmarked) [Ibuprofen, ibuprofen]
- adverse side effects recorded (Ibuprofen High group: 2 × 300 mg ibuprofen tablets four times daily, 2,400 mg per day, both related to gastric discomfort): two probable adverse effects
- adverse side effects recorded (Ibuprofen Low group: 2 × 150 mg ibuprofen tablets four times daily, 1,200 mg per day): no confirmed or probable adverse side effects

Source: US20110166234A1, “MEDICINAL PRODUCT AND TREATMENT” (priority 2008, published 2011)
